In patent US20020115649A1, “Use of texaphyrins in macrophage-mediated disease” (Pharmacyclics, Inc., priority 1998, published 2002):

Legend:
Redox potentials listing = format: physicochemical
Excerpt: Texaphyrin is a known radiosensitizer. Not wanting to be bound by theory, texaphyrin is thought to act as a radiosensitizer in the following manner. Oxygen is the ultimate electron acceptor in physiological systems. However, texaphyrins have a redox potential below that of oxygen.

[1] = Cardiac toxicity study for texaphyrin and doxorubicin; format: in vivo, Sprague Dawley rats; settings: 20 micromoles/kg i.v. 1 hour after doxorubicin 1 mg/kg, once a week for twelve weeks; versus doxorubicin alone
Method: To test whether gadolinium texaphyrin exacerbates cardiac toxicity, Sprague Dawley rats were injected intravenously either with 5% mannitol (10 ml/kg, n=6), or doxorubicin (1 mg/kg, n=14), or doxorubicin (1 mg/kg) followed 1 hour later by gadolinium texaphyrin (20 micromoles/kg, n=14). The dosing schedule was repeated once a week for twelve weeks. Animals were sacrificed one week post the last dose, and hearts were fixed in formalin.

[2] = test system: restenosis of balloon-injured carotid artery; test: Radiation therapy of balloon-injured rat carotid artery in preventing restenosis; format: in vivo, Sprague-Dawley male rats; settings: 2 weeks post-treatment
Excerpt: The rat carotid model was used for the studies. Sprague-Dawley male rats weighing about 400-450 g were anesthetized and maintained with Ketamine/Rompun cocktail via the animal's tail vein. The rats were shaved to expose the chest and neck, and a midline incision was made to expose the left common carotid artery, the external carotid artery, and the internal carotid artery. The internal carotid artery was temporally ligated. A small incision was made in the external carotid artery and a 2F Fogarty arterial embolectomy balloon catheter (Baxter Cardiovascular Group, Irvine, Calif.) was introduced from the external carotid artery to the common carotid artery. The balloon was inflated with 0.2 ml of saline and withdrawn from near to the common carotid bifurcation with a rotating motion to produce uniform endothelial denudation and medial stretching in the common carotid artery. After 3 passages, the catheter was removed, the external carotid artery was ligated, and the internal carotid artery was untied. The incision was then closed.
GdT2BET (2mM in 5% mannitol) at 20 μmol/kg was injected via the tail vein 22 hours following balloon denudation of the carotid artery. Radiation therapy was performed 2 hours after the gadolinium texaphyrin injection. The treatment area was marked and a 250 kV X-ray radiation machine was used. […]

[3] = test system: macrophage of restenotic tissue; test: Photodynamic therapy of balloon-induced iliac artery lesions (local delivery plus intravascular light); format: in vivo, New Zealand White rabbits
Method: Bilateral iliac artery lesions were induced in 9 male New Zealand White rabbits (NZW) after being on a high cholesterol diet (1%, Dyets, Bethlehem, Pa.) for 3 weeks. Each rabbit was anesthetized using a mixture of ketamine […]. The right carotid artery was exposed, carefully excised and a 5 Fr sheath (USCI) inserted into the descending aorta under fluoroscopic guidance. A 3.0 mm angioplasty balloon was advanced into the right or left iliac artery and then inflated distal to the deep femoral artery three times at 8 atm for 30 seconds. Subsequently, the same procedure was repeated in the contralateral iliac artery. Animals were maintained on the high cholesterol diet.
Six weeks after the denudation, each rabbit was reanesthetized. The left carotid artery was exposed, carefully excised and a 6 Fr sheath (USCI) inserted into the descending aorta under fluoroscopic guidance. A local drug delivery balloon (3 mm, Scimed, Minneapolis, Minn.) was advanced to the left or right iliac artery and placed at the same position as the previous balloon injury site. The proximal end of the delivery catheter was placed at the internal iliac artery under fluoroscopic control as a landmark reference. The balloon was inflated to 6 atm and 1 μmol/kg lutetium texaphyrin (LuT2BET) (2 mM in 5% mannitol) was infused intraarterially adjacent to the atheroma at a rate of 0.2 ml/min. Fifteen minutes post infusion a 0.9 mm optical fiber with a 3 cm cylindrical diffuser (Laserscope Inc., San Jose, Calif.) connected to an argon pumped dye laser (732 nm, Coherent Inc., Palo Alto, Calif.) delivered intravascular light at 180 J/cmF. One rabbit served as a light alone (no LuT2BET) control.
Two weeks following light treatment, each animal was euthanized and both iliac arteries were carefully removed from the adjacent tissue. Care was taken to harvest the exact portion of the artery where local drug delivery occurred by matching the anatomy with the respective fluoroscopic picture. The contralateral artery in the LuT2BET-treated rabbit served as a sensitizer alone control vessel. The vessels were fixed in 10% buffered formalin, embedded in paraffin and stained sequentially with RAM 11 (an antibody that binds with a cytoplasmic antigen in rabbit macrophages (DAKO)), and hematoxylin and eosin (H&E) for light microscopic analysis and planimetry.

[4] = Maximum tolerated dose of lutetium texaphyrin in one study; format: in vivo; settings: intravenous injection; determined in one study
Method: Administration for Photodynaminc Therapy: By way of example, lutetium texaphyrin is administered in solution containing 2 mg/ml optionally in 5% mannitol, USP. Dosages of about 1.0 or 2.0 mg/kg to about 4.0 or 5.0 mg/kg, preferably 3.0 mg/kg may be employed, up to a maximum tolerated dose that was determined in one study to be 5.2 mg/kg. The texaphyrin is administered by intravenous injection, followed by a waiting period of from as short a time as several minutes or about 3 hours to as long as about 72 or 96 hours (depending on the treatment being effected) to facilitate intracellular uptake and clearance from the plasma and extracellular matrix prior to the administration of photoirradiation.

[5] = test system: artery closure after angioplasty; settings: in vivo; cited from earlier work

## CC(=O)O.CC(=O)O.CCc1c(CC)c2cc3nc(cnc4cc(OCCOCCOCCOC)c(OCCOCCOCCOC)cc4ncc4nc(cc1[n-]2)C(CCCO)=C4C)C(C)=C3CCCO.[Gd] [GdT2B2]
Redox potentials listing
  redox potential: +0.08 V.

## CC(=O)[O-].CC(=O)[O-].CCc1c(CC)c2cc3nc(cnc4cc(OCCOCCOCCOC)c(OCCOCCOCCOC)cc4ncc4nc(cc1[n-]2)C(CCCO)=C4C)C(C)=C3CCCO.O.[Gd+3] [GdT2BET]
[1]
  cardiac toxicity (histologic evaluation): did not significantly exacerbate cardiac toxicity
[2]; 20 μmol/kg i.v. 22 hours after balloon denudation, 7 Gray X-ray 2 hours later, controls 100% restenosis
  restenosis in H&E sections, animals of four treated: three had no evidence of restenosis
[2]; 20 μmol/kg i.v. plus 7 Gray
  restenosis, lumen circumference affected in the fourth animal: up to 40%

## CC(=O)[O-].CC(=O)[O-].CCc1c(CC)c2cc3nc(cnc4cc(OCCOCCOCCOC)c(OCCOCCOCCOC)cc4ncc4nc(cc1[n-]2)C(CCCO)=C4C)C(C)=C3CCCO.O.[Lu+3] [LuT2BET]
[3]; 1 μmol/kg intraarterial plus 732 nm light, two weeks after light, versus 21±18%, P<<0.01
  macrophages in treated lesion in intima (RAM 11 quantitative analysis): 5.1±5.3%
[3]; 1 μmol/kg intraarterial plus 732 nm light, two weeks after light, versus 22±20%, P<<0.01
  macrophages in treated lesion in media (RAM 11 quantitative analysis): 7.7±10%
[3]; 1 μmol/kg intraarterial, 732 nm light 15 min post infusion, two weeks after light, nontreated segments 81±12%, P<<0.01
  Mean % plaque area in the treated segments: 73±10%
[3]; with photoirradiation
  destruction of activated macrophages: selectively destroys activated macrophages
[4]
  maximum tolerated dose: 5.2 mg/kg

B1: Abciximab (antibody, chains of the INN, looked up, V domains shown)
VH: EVQLQQSGTVLARPGASVKMSCEASGYTFTNYWMHWVKQRPGQGLEWIGAIYPGNSDTSYIQKFKGKAKLTAVTSTTSVYMELSSLTNEDSAVYYCTLYDGYYVFAYWGQGTLVTVSA
VL: EIVLTQSPVTLSVTPGDSVSLSCRASRDISNNLHWFQQTSHESPRLLIKYASQSMSGIPSRFSGSGSGTDFTLSINSVETEDFGMYFCQQTNSWPYTFGGGTKLEIK
modifications: Fab
[5]
  reduction of the risk of artery closure after angioplasty: up to 70%
